These results are taken from patent publication US20250314869A1, “SYSTEMS AND METHODS FOR HIGH THROUGHPUT SINGLE MOLECULE TRACKING IN LIVING CELLS” (EIKON THERAPEUTICS, INC., priority 2022, published 2025).

Entries after “also recorded” stand apart in the source; their conditions may differ. Where two headings read alike, the source gives them in different places.

For assay [1], the target named is T1, Estrogen Receptor (ER) (Homo sapiens, UniProt P03372).
T1 construct: expressed in transfected cells
T1 sequence (P03372 1-595): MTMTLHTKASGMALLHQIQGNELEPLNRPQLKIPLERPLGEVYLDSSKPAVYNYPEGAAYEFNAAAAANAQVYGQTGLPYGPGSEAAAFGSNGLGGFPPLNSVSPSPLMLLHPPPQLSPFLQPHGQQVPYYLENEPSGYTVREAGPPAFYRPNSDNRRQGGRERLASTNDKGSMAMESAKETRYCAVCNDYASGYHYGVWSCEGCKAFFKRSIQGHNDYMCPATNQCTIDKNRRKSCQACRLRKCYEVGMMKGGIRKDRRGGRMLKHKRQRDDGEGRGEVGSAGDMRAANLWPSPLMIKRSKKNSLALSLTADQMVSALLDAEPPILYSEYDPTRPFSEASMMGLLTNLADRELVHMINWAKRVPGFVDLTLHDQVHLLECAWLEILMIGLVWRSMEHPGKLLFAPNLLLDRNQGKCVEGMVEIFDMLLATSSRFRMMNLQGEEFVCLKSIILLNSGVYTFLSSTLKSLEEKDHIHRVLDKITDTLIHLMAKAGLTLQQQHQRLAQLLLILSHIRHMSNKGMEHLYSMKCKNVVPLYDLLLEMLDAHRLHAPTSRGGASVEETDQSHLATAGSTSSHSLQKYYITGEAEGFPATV
The assay is described as follows: htSMT of Halo-ER in U2OS cells (fbound, Dfree). The note with it: for change in ER fbound: follow-up of selected compounds. Type of assay: cell-based.

Assay [2] has as its target T2, glucocorticoid receptor (GR) (Homo sapiens, UniProt P04150).
T2 construct: Because U2OS cells express GR endogenously; endogenous in cells; host or cells: U2OS, CRISPR/Cas9 knock-in at the endogenous NR3C1 locus
T2 sequence (P04150 1-777): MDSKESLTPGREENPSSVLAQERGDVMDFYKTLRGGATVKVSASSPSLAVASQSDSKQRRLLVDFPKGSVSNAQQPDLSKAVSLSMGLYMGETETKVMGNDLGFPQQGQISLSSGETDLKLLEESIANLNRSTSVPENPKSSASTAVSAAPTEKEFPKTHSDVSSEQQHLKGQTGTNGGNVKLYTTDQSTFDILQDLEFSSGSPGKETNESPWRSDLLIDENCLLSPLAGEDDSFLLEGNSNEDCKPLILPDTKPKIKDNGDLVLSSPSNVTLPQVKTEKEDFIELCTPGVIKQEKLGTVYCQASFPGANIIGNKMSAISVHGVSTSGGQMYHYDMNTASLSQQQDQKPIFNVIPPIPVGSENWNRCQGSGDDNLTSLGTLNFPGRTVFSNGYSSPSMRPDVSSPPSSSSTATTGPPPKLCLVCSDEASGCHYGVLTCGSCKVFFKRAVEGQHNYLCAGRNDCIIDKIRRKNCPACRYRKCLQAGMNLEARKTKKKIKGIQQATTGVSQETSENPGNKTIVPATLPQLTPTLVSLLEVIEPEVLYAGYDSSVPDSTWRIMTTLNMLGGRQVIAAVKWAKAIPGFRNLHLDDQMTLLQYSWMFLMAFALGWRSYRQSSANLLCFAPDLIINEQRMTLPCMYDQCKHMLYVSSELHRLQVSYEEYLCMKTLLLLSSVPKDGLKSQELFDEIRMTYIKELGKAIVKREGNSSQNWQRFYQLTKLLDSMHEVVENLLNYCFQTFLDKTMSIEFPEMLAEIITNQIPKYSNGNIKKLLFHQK
The assay is described as follows: htSMT of Halo-GR in U2OS cells. Particulars: 1 μM antagonist, singly or with cognate agonist. Type of assay: cell-based. From the text: Where appropriate, compounds were serially diluted in an Echo Qualified 384-Well Low Dead Volume Source Microplate (0018544, Beckman Coulter) to generate dose-titration source material.

Another assay has as its target androgen receptor (AR) (Homo sapiens, UniProt P10275).
The target of assay [3] is T1, Estrogen Receptor (ER). The assay is described as follows: kinetic SMT (kSMT) of ER after compound addition. Type of assay: cell-based. The note with it: 100 nM compound.
For assay [4], the target named is T1, Estrogen Receptor (ER). The assay is described as follows: residence time imaging of ER-Halo (track length). Type of assay: cell-based. The note with it: versus DMSO, 100 nM HSP90 inhibition.
For a further assay, the target named is ER (Homo sapiens, UniProt P03372). The assay is described as follows: western blot of ER after 24 hours treatment. It counts as cell-based. Particulars: 24 hours prior to lysis; MCF7, T47d, U2OS ER-HaloTag. The procedure:
Cells were grown in the same conditions as described previously. […] Cells are lysed in 200 μL 1× Cell Lysis Buffer (catalogue number 9803, Cell Signaling). Protein lysate concentration is then determined using BCA protein assay kit (Catalog number 23225, Pierce™ BCA Protein Assay Kit) following manufacturer instructions. Capillary Western Immunoassay were performed using Jess Protein Simple following manufacturer's instruction (protein simple, USA). Levels of αER (1:100, RM-9101) were normalized to loading control β-tubulin (1:100, NC0244815 LI-COR 92642213, Thermo Fisher). The peaks were analyzed with the Compass software (Protein Simple, USA).

androgen receptor (AR), sequence (P10275 whole entry): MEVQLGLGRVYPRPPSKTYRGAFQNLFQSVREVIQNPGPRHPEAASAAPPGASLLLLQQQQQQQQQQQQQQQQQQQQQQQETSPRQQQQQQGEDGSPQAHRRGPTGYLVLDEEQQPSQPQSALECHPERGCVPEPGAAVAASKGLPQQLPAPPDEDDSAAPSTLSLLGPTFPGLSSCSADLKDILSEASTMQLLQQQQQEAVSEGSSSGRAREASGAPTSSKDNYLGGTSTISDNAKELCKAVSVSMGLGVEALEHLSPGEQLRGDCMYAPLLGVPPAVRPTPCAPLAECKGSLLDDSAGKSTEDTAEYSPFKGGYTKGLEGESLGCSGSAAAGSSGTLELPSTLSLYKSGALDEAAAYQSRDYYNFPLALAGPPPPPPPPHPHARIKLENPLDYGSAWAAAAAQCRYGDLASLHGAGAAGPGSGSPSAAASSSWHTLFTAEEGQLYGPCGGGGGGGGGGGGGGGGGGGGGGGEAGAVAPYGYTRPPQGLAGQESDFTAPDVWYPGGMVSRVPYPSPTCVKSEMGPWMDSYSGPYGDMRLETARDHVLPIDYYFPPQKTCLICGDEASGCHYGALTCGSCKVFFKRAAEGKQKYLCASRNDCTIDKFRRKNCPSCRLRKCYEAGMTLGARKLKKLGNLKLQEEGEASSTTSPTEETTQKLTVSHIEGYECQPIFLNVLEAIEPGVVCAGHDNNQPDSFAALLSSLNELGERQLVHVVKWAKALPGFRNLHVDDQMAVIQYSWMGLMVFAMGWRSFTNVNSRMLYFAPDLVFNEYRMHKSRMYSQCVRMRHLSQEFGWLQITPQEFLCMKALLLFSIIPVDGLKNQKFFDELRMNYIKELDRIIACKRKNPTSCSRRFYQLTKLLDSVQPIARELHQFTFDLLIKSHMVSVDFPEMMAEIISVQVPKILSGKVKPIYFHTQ

Take 4-hydroxytamoxifen: on Estrogen Receptor (ER) [1], the “change in ER fbound in bioactive screen” value was “significantly increased fbound” and the “maximal increase in ER fbound” value is on record as “lower maximal increases in fbound”.
With `CN(C)c1ccc(C(c2ccc(N(C)C)cc2)c2cc([N+](=O)[O-])ccc2Cl)cc1` [AL082D06], in assay [2], the “GR chromatin binding (fbound)” value was “decrease in chromatin binding”.
Regarding `CC(O)c1cc(C(=O)N[C@@H](C)Cn2ccc(-c3ccc(C#N)c(Cl)c3)n2)[nH]n1` (stereo partly drawn) [Darolutamide], the “AR fbound / chromatin binding” value at androgen receptor (AR) is reported as “decrease in chromatin binding”.
`COc1cccc(-c2cc(F)ccc2[C@H]2Cc3nc(N)nc(C)c3C(=O)N2)n1` [HSP990]: at Estrogen Receptor (ER) [1], the “change in ER fbound” value is given as “increase in fbound”. The “time at which overall effect on fbound reached a plateau” value at Estrogen Receptor (ER) [3] was “plateau after an hour”. At Estrogen Receptor (ER) [4], the “decrease in total number of long binding events” value is reported as “two”.
For the molecule `C[C@]12CC[C@@H]3c4ccc(O)cc4C[C@@H](CCCCCCCCC[S+]([O-])CCCC(F)(F)C(F)(F)F)[C@H]3[C@@H]1CC[C@@H]2O` (stereo partly drawn) [fulvestrant], the “change in ER fbound in bioactive screen” value on Estrogen Receptor (ER) [1] (1 μM compound versus DMSO) is listed as “increase in fbound; also recorded: significantly increased fbound”. In addition, at ER, the “ER degradation (western blot)” value is reported as “degradation of ER”.
On to `CC(C)c1cc(-c2n[nH]c(=O)n2-c2ccc3c(ccn3C)c2)c(O)cc1O` [ganetespib], for which the “change in ER fbound” value at Estrogen Receptor (ER) [1] is reported as “increase in fbound”. Besides, the “time at which overall effect on fbound reached a plateau” value at Estrogen Receptor (ER) [3] is “plateau after an hour”. For the same molecule, the “decrease in total number of long binding events” value at Estrogen Receptor (ER) [4] is reported as “four”.
